For assay [1], the target named is HDAC8 (Homo sapiens (Human), UniProt Q9BY41). To be noted: read-out: HDAC8 IC50.
Assay [2] deals with HDAC1 (Homo sapiens (Human), UniProt Q13547). To be noted: read-out: HDAC1 IC50.

Structures are written as SMILES.

Sequence of HDAC1 (Q13547 whole entry): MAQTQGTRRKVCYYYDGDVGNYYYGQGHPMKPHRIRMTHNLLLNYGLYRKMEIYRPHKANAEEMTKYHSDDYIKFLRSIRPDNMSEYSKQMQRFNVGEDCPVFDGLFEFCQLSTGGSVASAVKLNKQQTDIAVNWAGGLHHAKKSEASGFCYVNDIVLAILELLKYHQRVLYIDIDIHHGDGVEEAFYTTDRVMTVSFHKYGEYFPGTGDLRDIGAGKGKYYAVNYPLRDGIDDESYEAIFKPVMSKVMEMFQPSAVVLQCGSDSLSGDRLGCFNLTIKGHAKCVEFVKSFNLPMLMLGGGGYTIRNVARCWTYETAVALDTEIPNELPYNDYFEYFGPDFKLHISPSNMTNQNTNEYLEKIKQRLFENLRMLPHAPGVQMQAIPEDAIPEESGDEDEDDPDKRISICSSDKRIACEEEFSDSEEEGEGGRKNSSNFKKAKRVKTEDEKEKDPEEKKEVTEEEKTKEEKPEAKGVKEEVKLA
Sequence of HDAC8 (Q9BY41 whole entry): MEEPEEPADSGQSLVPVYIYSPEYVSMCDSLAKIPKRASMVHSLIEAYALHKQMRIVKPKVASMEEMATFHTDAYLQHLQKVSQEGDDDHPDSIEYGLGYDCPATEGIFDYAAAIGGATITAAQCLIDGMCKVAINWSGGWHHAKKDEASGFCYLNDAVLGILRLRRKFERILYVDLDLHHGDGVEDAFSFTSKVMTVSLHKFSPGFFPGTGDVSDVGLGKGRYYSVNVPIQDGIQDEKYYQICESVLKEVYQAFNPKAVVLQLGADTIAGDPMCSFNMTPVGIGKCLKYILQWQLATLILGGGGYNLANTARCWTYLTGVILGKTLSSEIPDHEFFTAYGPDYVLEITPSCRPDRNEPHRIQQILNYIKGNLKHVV

What is called IC50 is the concentration that gives 50% inhibition. Take `Cc1nnc(CC(=O)N(Cc2ccc(-c3noc(C(F)(F)F)n3)cc2)c2cccc(C(F)(F)F)c2)n1C` [Example 75, 2-(4,5-dimethyl-4H-1,2,4-triazol-3-yl)-N-(4-(5-(trifluoromethyl)-1,2,4-oxadiazol-3-yl)benzyl)-N-(3-(trifluoromethyl)phenyl)acetamide]: the half-maximal inhibitory concentration (IC50) was found to be 2300 nM in assay [1] and 860 nM in assay [2].

With `O=C(Cn1ccnn1)N(Cc1ccc(-c2noc(C(F)(F)F)n2)cc1)c1cccc(C(F)(F)F)c1` [Example 76, 2-(1H-1,2,3-triazol-1-yl)-N-(4-(5-(trifluoromethyl)-1,2,4-oxadiazol-3-yl)benzyl)-N-(3-(trifluoromethyl)phenyl)acetamide], the values for the concentration for half-maximal inhibition (IC50) in assay [1] and in assay [2] were 2100 nM and 1000 nM, respectively.

As to `Cc1nc(C)n(CC(=O)N(Cc2ccc(-c3noc(C(F)(F)F)n3)cc2)c2cccc(C(F)(F)F)c2)n1` [Example 77, 2-(3,5-dimethyl-1H-1,2,4-triazol-1-yl)-N-(4-(5-(trifluoromethyl)-1,2,4-oxadiazol-3-yl)benzyl)-N-(3-(trifluoromethyl)phenyl)acetamide], the half-maximal inhibitory concentration (IC50) in assay [1] was found to be 3300 nM; in assay [2], 1400 nM.

Take `CC(=O)NCCC(=O)N(Cc1ccc(-c2noc(C(F)(F)F)n2)cc1)c1cccc(C(F)(F)F)c1` [Example 78, 3-acetamido-N-(4-(5-(trifluoromethyl)-1,2,4-oxadiazol-3-yl)benzyl)-N-(3-(trifluoromethyl)phenyl)propanamide]: the half-inhibitory concentration (IC50) amounted to 2300 nM in assay [1] and 890 nM in assay [2].

Turning to `O=C(CC1COC1)N(Cc1ccc(-c2noc(C(F)(F)F)n2)cc1)c1cccc(C(F)(F)F)c1` [Example 80, 2-(oxetan-3-yl)-N-(4-(5-(trifluoromethyl)-1,2,4-oxadiazol-3-yl)benzyl)-N-(3-(trifluoromethyl)phenyl)acetamide], the IC50 in assay [1] amounted to 2800 nM; in assay [2], 1600 nM.

In the case of `O=C(CN1CCS(=O)(=O)CC1)N(Cc1ccc(-c2noc(C(F)(F)F)n2)cc1)c1cccc(C(F)(F)F)c1` [Example 81, 2-(1,1-dioxidothiomorpholino)-N-(4-(5-(trifluoromethyl)-1,2,4-oxadiazol-3-yl)benzyl)-N-(3-(trifluoromethyl)phenyl)acetamide], the IC50 in assay [1] is 4900 nM; in assay [2], 1300 nM.

In the case of `CN(C)CC(=O)N(Cc1ccc(-c2noc(C(F)(F)F)n2)cc1)c1cccc(C(F)(F)F)c1` [Example 83, 2-(dimethylamino)-N-(4-(5-(trifluoromethyl)-1,2,4-oxadiazol-3-yl)benzyl)-N-(3-(trifluoromethyl)phenyl)acetamide], the half-inhibitory concentration (IC50) in assay [1] was found to be 3500 nM; in assay [2] it was 1200 nM.

Regarding `O=C(C1CCOCC1)N(Cc1ccc(-c2noc(C(F)(F)F)n2)cc1)c1cccc(C(F)(F)F)c1` [Example 85, N-(4-(5-(trifluoromethyl)-1,2,4-oxadiazol-3-yl)benzyl)-N-(3-(trifluoromethyl)phenyl)tetrahydro-2H-pyran-4-carboxamide], the IC50 in assay [1] was determined as 2300 nM; in assay [2] it was 1200 nM.

As to `COCCn1nc(C(=O)N(Cc2ccc(-c3noc(C(F)(F)F)n3)cc2)c2cccc(C(F)(F)F)c2)ccc1=O` [Example 86, 1-(2-methoxyethyl)-6-oxo-N-(4-(5-(trifluoromethyl)-1,2,4-oxadiazol-3-yl)benzyl)-N-(3-(trifluoromethyl)phenyl)-1,6-dihydropyridazine-3-carboxamide], the IC50 was 3300 nM in assay [1] and 1200 nM in assay [2].

For the compound `Cn1nc(C(=O)N(Cc2ccc(-c3noc(C(F)(F)F)n3)cc2)c2cccc(C(F)(F)F)c2)ccc1=O` [Example 88, 1-methyl-6-oxo-N-(4-(5-(trifluoromethyl)-1,2,4-oxadiazol-3-yl)benzyl)-N-(3-(trifluoromethyl)phenyl)-1,6-dihydropyridazine-3-carboxamide], the IC50 in assay [1] is 3000 nM; in assay [2], 940 nM.

On to `O=C(CCn1cncn1)N(Cc1ccc(-c2noc(C(F)(F)F)n2)cc1)c1cccc(C(F)(F)F)c1` [Example 89, 3-(1H-1,2,4-triazol-1-yl)-N-(4-(5-(trifluoromethyl)-1,2,4-oxadiazol-3-yl)benzyl)-N-(3-(trifluoromethyl)phenyl)propanamide], for which the IC50 is 2000 nM in assay [1] and 1100 nM in assay [2].

For the compound `CC(C)C(=O)N1CCC(C(=O)N(Cc2ccc(-c3noc(C(F)(F)F)n3)cc2)c2cccc(C(F)(F)F)c2)CC1` [Example 90, 1-isobutyryl-N-(4-(5-(trifluoromethyl)-1,2,4-oxadiazol-3-yl)benzyl)-N-(3-(trifluoromethyl)phenyl)piperidine-4-carboxamide], the 50% inhibitory concentration (IC50) came to 2500 nM in assay [1] and 1400 nM in assay [2].

As for `CC(C)(C)OC(=O)N(Cc1ccc(-c2noc(C(F)(F)F)n2)cn1)c1cccc(F)c1` [Example 91, tert-butyl (3-fluorophenyl)((5-(5-(trifluoromethyl)-1,2,4-oxadiazol-3-yl)pyridin-2-yl)methyl)carbamate], the 50% inhibitory concentration (IC50) stood at 19000 nM in assay [1] and 1300 nM in assay [2].

As to `CN1CCN(CC(=O)N(Cc2ccc(-c3noc(C(F)(F)F)n3)cc2)c2cccc(C(F)(F)F)c2)CC1` [Example 93, 2-(4-methylpiperazin-1-yl)-N-(4-(5-(trifluoromethyl)-1,2,4-oxadiazol-3-yl)benzyl)-N-(3-(trifluoromethyl)phenyl)acetamide], the IC50 in assay [1] was found to be 2200 nM; in assay [2], 990 nM.

Take `O=C(Cc1cnccn1)N(Cc1ccc(-c2noc(C(F)(F)F)n2)cc1)c1cccc(C(F)(F)F)c1` [Example 94, 2-(pyrazin-2-yl)-N-(4-(5-(trifluoromethyl)-1,2,4-oxadiazol-3-yl)benzyl)-N-(3-(trifluoromethyl)phenyl)acetamide]: the half-inhibitory concentration (IC50) in assay [1] was 2300 nM; in assay [2], 1400 nM.

As for `Cn1ccc(CN(Cc2ccc(-c3noc(C(F)(F)F)n3)cc2)c2cccc(C(F)(F)F)c2)n1` [Example 96, N-((1-methyl-1H-pyrazol-3-yl)methyl)-3-(trifluoromethyl)-N-(4-(5-(trifluoromethyl)-1,2,4-oxadiazol-3-yl)benzyl)aniline], the IC50 in assay [1] is 30000 nM; in assay [2] it was 2400 nM.

`O=C(Cn1cnc2ccccc21)N(Cc1ccc(-c2noc(C(F)(F)F)n2)cc1)c1cccc(C(F)(F)F)c1` [Example 98, 2-(1H-benzo[d]imidazol-1-yl)-N-(4-(5-(trifluoromethyl)-1,2,4-oxadiazol-3-yl)benzyl)-N-(3-(trifluoromethyl)phenyl)acetamide]: the IC50 in assay [1] stood at 2300 nM; in assay [2] it was 4200 nM.

As for `Cc1nc2ccc(F)cc2n1Cc1ccc(-c2noc(C(F)(F)F)n2)cc1F` [Example 99, 3-(3-fluoro-4-((6-fluoro-2-methyl-1H-benzo[d]imidazol-1-yl)methyl)phenyl)-5-(trifluoromethyl)-1,2,4-oxadiazole], the results for the 50% inhibitory concentration (IC50) in assay [1] and in assay [2] were 5900 nM and 1900 nM, respectively.

As to `CN(C)c1cccc(COc2cc(-c3noc(C(F)(F)F)n3)ccn2)n1` [Example 101, N,N-dimethyl-6-(((4-(5-(trifluoromethyl)-1,2,4-oxadiazol-3-yl)pyridin-2-yl)oxy)methyl)pyridin-2-amine], the IC50 is 17000 nM in assay [1] and 20000 nM in assay [2].

In the case of `O=C1CC[C@@H](c2nc3ccccc3o2)N1c1ccc(-c2noc(C(F)(F)F)n2)cc1` [Example 104, (S)-5-(benzo[d]oxazol-2-yl)-1-(4-(5-(trifluoromethyl)-1,2,4-oxadiazol-3-yl)phenyl)pyrrolidin-2-one], the IC50 in assay [1] came to 440 nM; in assay [2] it was 120 nM.

Values taken from US11066396B2 (priority 2016, dated 2021).
